The values that follow come from PMC7297817, “Pharmacological Characterization of a Betaine/GABA Transporter 1 (BGT1) Inhibitor Displaying an Unusual Biphasic Inhibition Profile and Anti-seizure Effects” (Neurochemical Research, 2020).

Read-outs that look alike come from different tables or passages of the source.

Test [1] has as its target T1, mGAT2 (Mus musculus, UniProt P31649).
T1 construct: expressed in transfected cells
Nature of the test: [3H]GABA uptake at mGAT2 stably expressed in HEK-293 cells. Format: cell-based. On the procedure: (§1) The HEK-293 and Flp-In CHO cell lines stably expressing mouse (m) and human (h) GATs, respectively, have been described previously and were cultured accordingly. The tsA201 cell line was used for transient expression while the MDCK II cell line express BGT1 endogenously. Both cell lines were cultured as described. tsA201 cells were transfected with DNA constructs (8 μg per 10 cm dish if not otherwise mentioned) using 40 μL PolyFect transfection reagent according to the manufacturer’s protocol (Qiagen, Venlo, Netherlands). The DNA constructs encoding hBGT1, hGAT1-3 [36], the mutated constructs hBGT1 Q299 and hGAT3 L314Q described previously, and hBGT Y453A were synthesized and sequence validated by Genscript (NJ, USA).
(§2) The [^3H]GABA competition uptake assay was performed as previously described. A minor change, however, was introduced for uptake in MDCK II cells, in which 100 nM [^3H]GABA was used for a 15 min incubation period at 37 °C instead of 30 nM [^3H]GABA and 3 min incubation. Studies related to the inhibition curves with GABA and BPDBA at hBGT1 were obtained both with and without the presence of 10 μM ATP during the [^3H]GABA uptake assay.
(§3) The [^3H]GABA uptake data was normalized to the percentage of total uptake in the individual experiments in the presence of the lowest compound concentration or no compound present. […]

In test [2] the target is T2, D3 (Homo sapiens, UniProt P35462).
T2 construct: purchased NIMH Psychoactive Drug Screening Program (PDSP)
Description: NIMH PDSP radioligand binding, D3. Conditions: radioligand [3H]N-methylspiperone, n=4.

Test [3] deals with tsA201 cells transiently expressing hBGT1. Description: Fluo-4 Ca2+-assay in tsA201 cells transiently expressing hBGT1. It counts as cell-based, human. The conditions noted are these: within the 3 min timeframe; blocked by BAPTA/AM. The protocol: Emission was recorded for 20 s. before adding the compounds (at 4 × concentrations) to the HBSS-HEPES buffer to determine the baseline. […] Data presented is the pooled data of at least three independent experiments with three technical replicates. Changes in fluorescence units (ΔFU) were determined as the maximum fluorescent signal within the 190 s minus the average of the baseline.

Test [4] addresses Sigma1 (Cavia porcellus, UniProt Q60492). Description: NIMH PDSP radioligand binding, Sigma1. The conditions noted are these: radioligand [3H]pentazocine(+), n=4. On the procedure: (§4) IC50 values in μM (Ki μM)^a. The targets in bold were inhibited by >35% at 10 μM.
Test [5] deals with T3, M1 (Homo sapiens, UniProt P11229).
T3 construct: purchased NIMH Psychoactive Drug Screening Program (PDSP)
Description: NIMH PDSP radioligand binding, M1.

For test [6], the target named is T4, D1 (Homo sapiens, UniProt P21728).
T4 construct: purchased NIMH Psychoactive Drug Screening Program (PDSP)
Description: NIMH PDSP radioligand binding, D1. The conditions noted are these: radioligand [3H]SCH23390, n=4.

In test [7] the target is T5, DOR (Homo sapiens, UniProt P41143).
T5 construct: purchased NIMH Psychoactive Drug Screening Program (PDSP)
Description: NIMH PDSP radioligand binding, DOR. Conditions: radioligand [3H]DADLE, n=4.

Test [8] concerns the target T6, 5-HT6 (Homo sapiens, UniProt P50406).
T6 construct: NIMH PDSP (screening service)
Nature of the test: NIMH PDSP radioligand binding, 5-HT6. The conditions noted are these: radioligand [3H]LSD, n=4.

Test [9] deals with T7, 5-HT3 (Homo sapiens, UniProt P46098).
T7 construct: purchased NIMH Psychoactive Drug Screening Program (PDSP)
Nature of the test: NIMH PDSP radioligand binding, 5-HT3. The conditions noted are these: radioligand [3H]LY278584, n=4.

For test [10], the system named is BZP rat brain. Description: NIMH PDSP radioligand binding, BZP rat brain. The conditions noted are these: 10 μM; radioligand [3H]Flunitrazepam; n=4. The protocol: as §4
Test [11] concerns the target T8, hBGT1 Y453A (Homo sapiens, UniProt P48065, Y453A).
T8 construct: host or cells: tsA201 (transient)
Description: [3H]GABA uptake at hBGT1 Y453A mutant in tsA201 cells. Format: cell-based. The conditions noted are these: data not shown. On the procedure: as §1, §2, §3

For test [12], the target named is T9, mGAT3 (Mus musculus, UniProt P31650).
T9 construct: expressed in transfected cells
Nature of the test: [3H]GABA uptake at mGAT3 stably expressed in HEK-293 cells. Format: cell-based. The conditions noted are these: N=3. The protocol: as §1, §2, §3

Test [13] concerns the target T10, mBGT1 (Mus musculus, UniProt P31651).
T10 construct: expressed in transfected cells
T10 sequence (P31651 1-614): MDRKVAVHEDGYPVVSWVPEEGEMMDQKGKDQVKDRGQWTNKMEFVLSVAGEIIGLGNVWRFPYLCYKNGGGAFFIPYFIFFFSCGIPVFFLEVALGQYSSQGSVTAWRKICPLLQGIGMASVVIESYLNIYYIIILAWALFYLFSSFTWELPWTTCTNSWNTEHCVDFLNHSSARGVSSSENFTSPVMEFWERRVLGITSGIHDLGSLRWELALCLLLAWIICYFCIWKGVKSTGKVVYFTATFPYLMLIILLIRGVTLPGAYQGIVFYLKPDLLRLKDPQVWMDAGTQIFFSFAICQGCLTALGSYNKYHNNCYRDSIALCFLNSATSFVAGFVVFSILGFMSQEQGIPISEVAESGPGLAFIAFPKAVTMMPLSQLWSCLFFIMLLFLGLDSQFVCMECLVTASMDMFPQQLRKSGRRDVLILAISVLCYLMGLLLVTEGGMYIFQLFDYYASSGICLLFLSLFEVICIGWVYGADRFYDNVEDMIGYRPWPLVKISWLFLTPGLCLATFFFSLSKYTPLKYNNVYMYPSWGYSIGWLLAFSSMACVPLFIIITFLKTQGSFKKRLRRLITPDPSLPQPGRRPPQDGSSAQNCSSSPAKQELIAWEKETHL
Nature of the test: [3H]GABA uptake at mBGT1 stably expressed in HEK-293 cells. Format: cell-based. On the procedure: as §1, §2
The [^3H]GABA uptake data was normalized to the percentage of total uptake in the individual experiments in the presence of the lowest compound concentration or no compound present. Data presented is the pooled data of at least three independent experiments with three technical replicates. Concentration–response curves (CRCs) were fitted with GraphPad Prism (version 8.2.1, Yosemite, GraphPad Software, San Diego, CA, USA) by non-linear regression to the sigmoidal concentration response model: Y=Bottom+(Top-Bottom)/1+10^LogIC50-X∗nH where Top is the Top plateau, Bottom is the Bottom plateau, X is the logarithm of the concentration of the compound, LogIC50 is the concentration giving a response halfway between Top and Bottom,and nH is the Hill slope.
The best fit for CRCs obtained with the [^3H]GABA uptake assay was identified by the extra-sum-of-squares F test (for convenience referred to as F test).

The target in test [14] is T11, NET (Homo sapiens, UniProt P23975).
T11 construct: purchased NIMH Psychoactive Drug Screening Program (PDSP)
Nature of the test: NIMH PDSP radioligand binding, NET. Conditions: radioligand [3H]nisoxetine, n=4.

The target of test [15] is T12, Alpha2A (Homo sapiens, UniProt P08913).
T12 construct: purchased NIMH Psychoactive Drug Screening Program (PDSP)
Description: NIMH PDSP radioligand binding, Alpha2A. Conditions: radioligand [3H]rauwolscine, n=4.

Test [16] has as its target T13, DAT (Homo sapiens, UniProt Q01959).
T13 construct: purchased NIMH Psychoactive Drug Screening Program (PDSP)
Description: NIMH PDSP radioligand binding, DAT. Conditions: radioligand [3H]WIN35428, n=4.

T9 sequence (P31650 whole entry): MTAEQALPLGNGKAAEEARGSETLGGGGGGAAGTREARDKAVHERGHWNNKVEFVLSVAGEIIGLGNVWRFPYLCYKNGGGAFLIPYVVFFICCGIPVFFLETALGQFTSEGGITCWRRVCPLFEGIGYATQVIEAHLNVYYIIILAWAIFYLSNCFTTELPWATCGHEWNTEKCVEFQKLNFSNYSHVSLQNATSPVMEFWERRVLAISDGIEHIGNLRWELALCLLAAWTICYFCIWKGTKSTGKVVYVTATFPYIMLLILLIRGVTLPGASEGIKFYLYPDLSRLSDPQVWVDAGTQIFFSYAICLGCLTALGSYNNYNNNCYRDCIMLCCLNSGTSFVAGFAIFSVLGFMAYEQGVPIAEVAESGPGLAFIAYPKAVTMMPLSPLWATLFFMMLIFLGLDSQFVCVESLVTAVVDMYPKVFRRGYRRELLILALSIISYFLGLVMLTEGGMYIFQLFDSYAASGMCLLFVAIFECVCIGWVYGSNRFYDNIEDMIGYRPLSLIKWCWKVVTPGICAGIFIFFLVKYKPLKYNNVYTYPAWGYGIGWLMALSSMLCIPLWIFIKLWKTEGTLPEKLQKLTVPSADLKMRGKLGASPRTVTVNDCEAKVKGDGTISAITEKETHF
T1 sequence (P31649 whole entry): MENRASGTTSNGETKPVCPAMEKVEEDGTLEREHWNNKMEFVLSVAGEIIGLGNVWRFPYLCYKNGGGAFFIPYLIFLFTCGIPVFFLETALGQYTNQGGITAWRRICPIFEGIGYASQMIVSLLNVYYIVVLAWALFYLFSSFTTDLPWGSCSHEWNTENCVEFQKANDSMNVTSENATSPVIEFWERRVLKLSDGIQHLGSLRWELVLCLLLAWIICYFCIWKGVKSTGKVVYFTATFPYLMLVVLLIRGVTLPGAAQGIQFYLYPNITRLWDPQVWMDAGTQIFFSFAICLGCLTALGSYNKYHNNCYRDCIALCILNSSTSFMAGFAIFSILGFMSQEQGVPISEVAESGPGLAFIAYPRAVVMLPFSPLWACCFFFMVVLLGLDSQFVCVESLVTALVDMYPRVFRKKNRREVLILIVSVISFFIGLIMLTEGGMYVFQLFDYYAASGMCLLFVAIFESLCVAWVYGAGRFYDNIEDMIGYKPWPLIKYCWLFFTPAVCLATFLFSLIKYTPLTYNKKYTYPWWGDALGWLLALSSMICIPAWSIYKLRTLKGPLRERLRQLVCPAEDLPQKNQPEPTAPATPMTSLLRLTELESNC
Sequence of Sigma1 (Q60492 whole entry): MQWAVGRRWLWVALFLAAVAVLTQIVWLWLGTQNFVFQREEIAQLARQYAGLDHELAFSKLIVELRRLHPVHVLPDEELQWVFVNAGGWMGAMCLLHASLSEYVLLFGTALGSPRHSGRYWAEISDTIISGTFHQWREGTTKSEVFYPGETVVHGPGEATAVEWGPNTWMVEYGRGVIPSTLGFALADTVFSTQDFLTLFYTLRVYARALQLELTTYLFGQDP
T4 sequence (P21728 whole entry): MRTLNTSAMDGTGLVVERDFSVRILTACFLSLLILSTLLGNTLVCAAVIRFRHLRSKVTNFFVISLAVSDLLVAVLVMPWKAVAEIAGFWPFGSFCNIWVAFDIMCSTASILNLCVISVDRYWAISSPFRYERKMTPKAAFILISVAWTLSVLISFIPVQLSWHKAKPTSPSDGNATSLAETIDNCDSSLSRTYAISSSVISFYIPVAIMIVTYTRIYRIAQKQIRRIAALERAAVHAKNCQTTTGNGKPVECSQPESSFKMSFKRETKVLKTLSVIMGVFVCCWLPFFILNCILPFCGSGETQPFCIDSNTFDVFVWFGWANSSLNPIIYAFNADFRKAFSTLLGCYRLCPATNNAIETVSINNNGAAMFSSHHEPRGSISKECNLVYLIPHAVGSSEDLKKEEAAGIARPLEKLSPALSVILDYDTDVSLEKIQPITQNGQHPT
T2 sequence (P35462 whole entry): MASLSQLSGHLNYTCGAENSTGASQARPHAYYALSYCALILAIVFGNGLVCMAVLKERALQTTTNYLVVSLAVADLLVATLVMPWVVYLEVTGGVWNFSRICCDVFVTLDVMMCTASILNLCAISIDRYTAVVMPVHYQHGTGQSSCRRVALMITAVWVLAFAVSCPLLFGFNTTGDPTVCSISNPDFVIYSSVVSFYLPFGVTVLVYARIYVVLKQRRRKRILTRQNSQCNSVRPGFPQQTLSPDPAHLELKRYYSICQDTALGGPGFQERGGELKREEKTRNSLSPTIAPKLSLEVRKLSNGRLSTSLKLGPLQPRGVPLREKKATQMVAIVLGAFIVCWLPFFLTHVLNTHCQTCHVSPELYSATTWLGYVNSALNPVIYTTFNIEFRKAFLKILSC
T3 sequence (P11229 whole entry): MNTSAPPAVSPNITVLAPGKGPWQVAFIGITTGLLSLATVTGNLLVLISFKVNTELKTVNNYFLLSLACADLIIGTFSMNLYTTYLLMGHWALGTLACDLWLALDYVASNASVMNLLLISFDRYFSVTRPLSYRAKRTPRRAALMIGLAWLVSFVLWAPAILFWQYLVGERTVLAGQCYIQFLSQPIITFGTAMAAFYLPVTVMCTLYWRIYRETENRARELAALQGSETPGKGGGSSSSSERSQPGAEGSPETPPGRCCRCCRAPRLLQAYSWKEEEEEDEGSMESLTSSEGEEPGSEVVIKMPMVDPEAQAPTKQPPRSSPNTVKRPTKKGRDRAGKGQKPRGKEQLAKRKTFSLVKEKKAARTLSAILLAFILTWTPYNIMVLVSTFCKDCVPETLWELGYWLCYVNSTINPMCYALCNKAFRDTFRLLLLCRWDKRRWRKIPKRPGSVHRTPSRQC
T12 sequence (P08913 whole entry): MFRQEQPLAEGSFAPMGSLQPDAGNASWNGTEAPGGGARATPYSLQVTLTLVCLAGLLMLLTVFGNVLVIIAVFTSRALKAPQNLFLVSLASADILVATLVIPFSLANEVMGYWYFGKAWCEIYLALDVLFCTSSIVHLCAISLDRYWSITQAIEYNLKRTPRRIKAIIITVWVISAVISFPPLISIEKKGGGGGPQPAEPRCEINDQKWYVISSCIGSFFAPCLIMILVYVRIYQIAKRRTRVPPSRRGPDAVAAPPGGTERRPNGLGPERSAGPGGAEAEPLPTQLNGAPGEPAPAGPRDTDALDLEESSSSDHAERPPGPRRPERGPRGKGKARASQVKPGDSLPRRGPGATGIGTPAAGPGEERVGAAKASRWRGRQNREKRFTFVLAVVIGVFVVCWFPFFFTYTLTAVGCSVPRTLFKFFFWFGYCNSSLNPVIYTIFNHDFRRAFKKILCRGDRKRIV
T5 sequence (P41143 whole entry): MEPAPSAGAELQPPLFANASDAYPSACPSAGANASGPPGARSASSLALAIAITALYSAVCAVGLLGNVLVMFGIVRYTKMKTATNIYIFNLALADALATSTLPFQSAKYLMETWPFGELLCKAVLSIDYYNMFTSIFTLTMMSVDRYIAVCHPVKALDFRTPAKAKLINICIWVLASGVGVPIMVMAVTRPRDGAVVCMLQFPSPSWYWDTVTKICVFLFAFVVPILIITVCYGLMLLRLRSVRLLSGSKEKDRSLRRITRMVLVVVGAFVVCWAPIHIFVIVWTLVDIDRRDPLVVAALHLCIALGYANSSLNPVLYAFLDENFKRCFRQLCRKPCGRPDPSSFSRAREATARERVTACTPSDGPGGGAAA
T13 sequence (Q01959 whole entry): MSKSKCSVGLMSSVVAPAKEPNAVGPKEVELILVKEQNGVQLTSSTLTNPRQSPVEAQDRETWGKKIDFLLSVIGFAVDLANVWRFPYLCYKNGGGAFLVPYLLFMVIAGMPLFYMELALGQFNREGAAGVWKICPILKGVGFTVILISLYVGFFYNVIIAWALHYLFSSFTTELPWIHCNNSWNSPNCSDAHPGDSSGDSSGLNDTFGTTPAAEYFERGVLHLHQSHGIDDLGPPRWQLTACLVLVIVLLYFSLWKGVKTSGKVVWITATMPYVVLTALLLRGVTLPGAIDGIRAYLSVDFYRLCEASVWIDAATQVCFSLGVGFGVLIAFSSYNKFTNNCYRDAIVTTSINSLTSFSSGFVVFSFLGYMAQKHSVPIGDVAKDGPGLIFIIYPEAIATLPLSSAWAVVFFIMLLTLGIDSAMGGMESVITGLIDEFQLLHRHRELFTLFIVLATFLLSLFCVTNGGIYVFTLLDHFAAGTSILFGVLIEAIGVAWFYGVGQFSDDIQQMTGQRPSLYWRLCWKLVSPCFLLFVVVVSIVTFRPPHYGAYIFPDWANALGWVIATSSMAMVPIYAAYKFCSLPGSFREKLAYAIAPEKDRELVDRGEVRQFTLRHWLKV
T6 sequence (P50406 whole entry, species assumed): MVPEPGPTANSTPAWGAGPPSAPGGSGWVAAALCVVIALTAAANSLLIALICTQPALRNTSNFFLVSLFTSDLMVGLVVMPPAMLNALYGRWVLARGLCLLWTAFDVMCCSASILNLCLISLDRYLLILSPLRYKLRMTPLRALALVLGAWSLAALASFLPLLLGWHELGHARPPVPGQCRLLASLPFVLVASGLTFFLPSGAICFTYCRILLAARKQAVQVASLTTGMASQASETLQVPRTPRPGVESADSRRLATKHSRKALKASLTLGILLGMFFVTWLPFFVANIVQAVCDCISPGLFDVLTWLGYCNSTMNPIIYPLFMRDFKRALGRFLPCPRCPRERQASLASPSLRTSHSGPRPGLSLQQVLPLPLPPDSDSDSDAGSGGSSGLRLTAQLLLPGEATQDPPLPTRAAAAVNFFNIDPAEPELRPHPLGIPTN

With `Cc1ccsc1C(=CCCN(C)[C@H]1CCCC[C@H]1C(=O)O)c1sccc1C` [SBV2-114, (1R,2S)-2-((4,4-bis(3-methylthiophen-2-yl)but-3-en-yl)(methyl)amino)cyclohexanecarboxylic acid], the 50% inhibitory concentration (IC50) was over 1000 µM in test [1]; over 1000 µM in test [12] (ambiguous fit); 3.8 µM in [13]; 408 µM in test [13] (read-out: IC50, low affinity component (high IC50), biphasic fit, 30 nM [3H]GABA, 3 min, HEK-293). For the same compound, the Fit entry in [1] (preferred model, N=3) is given as “Ambiguous”; in test [12] (preferred model), “Ambiguous”; in test [13] (preferred model, extra-sum-of-squares F test, N=5) it was “Biphasic”. For the same compound, the inhibition at 10 µM in test [2] stood at 27.8%; in [4], 55.6%; in [5], 18.3%; in test [6] it was 14%; in [7], 36.6%; in [8], 50%. For the same compound, the inhibition at 10 µM in [9] was -3%; in test [14] it was 0.1%; in [15], 42.8%; in test [16], 36.9%. The “intracellular Ca2+ increase” value in [3] was “triggered an intracellular Ca^2+ increase at 200 μM and 500 μM”. Besides, the “% inhibition” value in test [10] turned out to be 9.1%. The “activity at hBGT1 Y453A” value in [11] is “did not show the expected decrease in activity”. Moreover, the “% inhibition (Frac value) at the low IC50” value in test [13] (biphasic fit) turned out to be 45%.

A word on the IC50: it is the concentration at which inhibition is half-maximal. Usually inhibition stands for the relative decrease from the control value, in per cent. As usually defined, the % inhibition is the share of the control response that was lost under treatment.
